Results taken from patent publication US20160039767A1, “PYRAZOLE DERIVATIVES AS PRMT1 INHIBITORS AND USES THEREOF” (EPIZYME, INC., priority 2013, published 2016).
Where two headings read alike, the source gives them in different places.

Columns and labels:
PRMT1 = molecular target: T1, PRMT1 (Homo sapiens, UniProt Q99873); assay: PRMT1 Biochemical Assay (3H-SAM Flashplate, histone H4 peptide substrate); details: Biochemical IC50 (Numerical, μM) PRMT1, single experiment or average of multiple experiments, Table 2a
T1 construct: GST-tagged PRMT1; made in house; host or cells: High Five insect cells (baculovirus, pFastBacI)
T1 sequence (Q99873 with tags, fused parts or gaps): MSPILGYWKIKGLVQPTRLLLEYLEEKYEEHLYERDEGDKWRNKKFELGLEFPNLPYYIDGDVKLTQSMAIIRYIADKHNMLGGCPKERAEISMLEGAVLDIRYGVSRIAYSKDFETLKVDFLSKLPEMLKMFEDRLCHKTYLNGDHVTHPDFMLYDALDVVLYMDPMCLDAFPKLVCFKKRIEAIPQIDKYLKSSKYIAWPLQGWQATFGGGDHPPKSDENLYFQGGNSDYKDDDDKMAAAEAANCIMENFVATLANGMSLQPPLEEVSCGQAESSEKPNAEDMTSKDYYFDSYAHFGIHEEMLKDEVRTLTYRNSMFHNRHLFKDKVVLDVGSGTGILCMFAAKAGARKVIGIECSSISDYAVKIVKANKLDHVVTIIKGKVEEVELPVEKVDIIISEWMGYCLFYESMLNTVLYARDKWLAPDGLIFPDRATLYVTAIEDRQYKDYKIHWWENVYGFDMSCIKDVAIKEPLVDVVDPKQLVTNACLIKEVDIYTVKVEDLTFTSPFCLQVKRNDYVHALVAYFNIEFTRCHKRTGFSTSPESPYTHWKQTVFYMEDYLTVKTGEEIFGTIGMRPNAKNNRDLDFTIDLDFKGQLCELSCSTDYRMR
From the text: S-adenosylmethionine (SAM), S-adenosylhomocysteine (SAH), bicine, Tween20, dimethylsulfoxide (DMSO), bovine skin gelatin (BSG), and Tris(2-carboxyethyl)phosphine hydrochloride solution (TCEP) were purchased from Sigma-Aldrich at the highest level of purity possible. ^3H-SAM was purchase from American Radiolabeled Chemicals with a specific activity of 80 Ci/mmol. 384-well streptavidin Flashplates were purchased from PerkinElmer.
Recombinant baculovirus were generated according to Bac-to-Bac kit instructions (Life Technologies). Protein over-expression was accomplished by infecting exponentially growing High Five insect cell culture at 1.5×10^6 cell/ml with 1:100 ratio of virus. Infections were carried out at 27° C. for 48 hours, harvested by centrifugation, and stored at −80° C. for purification.
GST-tagged PRMT1 was eluted with 50 mM Tris, 2 mM glutathione, pH 7.8, dialysed in buffer A and concentrated to 1 mg/mL.
General Procedure for PRMT1 Enzyme Assays on Peptide Substrates.
The assays were all performed in a buffer consisting of 20 mM Bicine (pH=7.6), 1 mM TCEP, 0.005% BSG, and 0.002% Tween 20, prepared on the day of use. […] DMSO (1 ul) was added to Columns 11, 12, 23, 24, rows A-H for the maximum signal control and 1 ul of SAH, a known product and inhibitor of PRMT1, was added to columns 11, 12, 23, 24, rows I-P for the minimum signal control. A cocktail (40 ul) containing the PRMT1 enzyme was added by Multidrop Combi (Thermo-Fisher). The compounds were allowed to incubate with PRMT1 for 30 min at room temperature, then a cocktail (10 ul) containing SAM and peptide was added to initiate the reaction (final volume=51 ul). […] The assays were stopped by the addition of non-radiolabeled SAM (10 ul) to a final concentration of 300 uM, which dilutes the ^3H-SAM to a level where its incorporation into the peptide substrate is no longer detectable. […] The plates were then read in a PerkinElmer TopCount plate reader to measure the quantity of ^3H-labeled peptide bound to the Flashplate surface, measured as disintegrations per minute (dpm) or alternatively, referred to as counts per minute (cpm).
Where dpm=disintegrations per minute, cmpd=signal in assay well, and min and max are the respective minimum and maximum signal controls.
Where top and bottom are the normally allowed to float, but may be fixed at 100 or 0 respectively in a 3-parameter fit. The Hill Coefficient normally allowed to float but may also be fixed at 1 in a 3-parameter fit. Y is the % inhibition and X is the compound concentration.

RKO cells = assay: RKO Methylation Assay (In Cell Western for mono-methyl arginine and DNA content); assay type: cell-based; details: Homo sapiens
From the text: RKO adherent cells were purchased from ATCC (American Type Culture Collection), Manassas, Va., USA. DMEM/Glutamax medium, penicillin-streptomycin, heat inactivated fetal bovine serum, 0.05% trypsin and D-PBS were purchased from Life Technologies, Grand Island, N.Y., USA. Odyssey blocking buffer, 800CW goat anti-rabbit IgG (H+L) antibody, and Licor Odyssey infrared scanner were purchased from Licor Biosciences, Lincoln, Nebr., USA. Mono-methyl arginine antibody was purchased from Cell Signaling Technology, Danvers, Mass., USA. Methanol was purchased from VWR, Franklin, Mass., USA. 10% Tween 20 was purchased from KPL, Inc., Gaithersburg, Md., USA. DRAQ5 was purchased from Biostatus Limited, Leicestershire, UK.
RKO adherent cells were maintained in growth medium (DMEM/Glutamax medium supplemented with 10% v/v heat inactivated fetal bovine serum and 100 units/mL penicillin-streptomycin) and cultured at 37° C. under 5% CO2.
Cell Treatment, in Cell Western (ICW) for Detection of Mono-Methyl Arginine and DNA Content.
Compound (100 nL) from a 96-well source plate was added directly to 384 well cell plate. Plates were incubated at 37° C., 5% CO2 for 72 hours. After three days of incubation, plates were brought to room temperature outside of the incubator for ten minutes and blotted on paper towels to remove cell media. 50 μL of ice cold 100% methanol was added directly to each well and incubated for 30 min at room temperature. After 30 min, plates were transferred to a Biotek EL406 plate washer and washed 2 times with 100 μL per well of wash buffer (1×PBS). Next 60 μL per well of Odyssey blocking buffer (Odyssey Buffer with 0.1% Tween 20 (v/v)) were added to each plate and incubated 1 hour at room temperature. Blocking buffer was removed and 20 μL per well of primary antibody was added (mono-methyl arginine diluted 1:200 in Odyssey buffer with 0.1% Tween 20 (v/v)) and plates were incubated overnight (16 hours) at 4° C. Plates were washed 5 times with 100 µL per well of wash buffer. Next 20 μL per well of secondary antibody was added (1:200 800CW goat anti-rabbit IgG (H+L) antibody, 1:1000 DRAQ5 (Biostatus limited) in Odyssey buffer with 0.1% Tween 20 (v/v)) and incubated for 1 hour at room temperature. The plates were washed 5 times with 100 μL per well wash buffer then 2 times with 100 μL per well of water. Plates were allowed to dry at room temperature then imaged on the Licor Odyssey machine which measures integrated intensity at 700 nm and 800 nm wavelengths. Both 700 and 800 channels were scanned.
First, the ratio for each well was determined by:
Each plate included fourteen control wells of DMSO only treatment (minimum activation) as well as fourteen control wells for maximum activation treated with 20 μM of a reference compound. The average of the ratio values for each control type was calculated and used to determine the percent activation for each test well in the plate. Reference compound was serially diluted three-fold in DMSO for a total of nine test concentrations, beginning at 20 μM. Percent activation was determined and EC30 curves were generated using triplicate wells per concentration of compound.

[1] = RKO cells, 72 hours, mono-methyl arginine, class symbols, Table 3, read-out: In Cell Western data EC30
[2] = RKO cells, 72 hours, mono-methyl arginine, single experiment or average of multiple experiments, Table 3a, read-out: In Cell Western data (Numerical, μM) EC30
[3] = RKO, 72 h, read-out: In Cell Western data (Numerical, μM) EC30
[4] = RKO, 72 h, read-out: In Cell Western data EC30

| Structure (SMILES) | IC50 (PRMT1) [µM] | EC30 (RKO cells; [1]) [µM] | EC30 (RKO cells; [2]) [µM] | EC30 (RKO cells; [3]) [µM] | EC30 (RKO cells; [4]) [µM] |
| --- | --- | --- | --- | --- | --- |
| CC(C)CCc1cc(-c2n[nH]cc2CN(C)CCN)cc(C(F)(F)F)c1 [Compound 63] | 0.0114 |  |  |  |  |
| CC(C)Oc1ccc(-c2c[nH]nc2CN(C)CCN)cc1C(F)(F)F [Compound 8] | 0.0165 | < 3 | 2.69 |  |  |
| CNCCN(C)Cc1c[nH]nc1-c1cc(Cl)c(OC(C)C)c(C(F)(F)F)c1 [Compound 25] | 0.0101 |  |  | 0.983 | < 3 |
| CNCCN(C)Cc1c[nH]nc1-c1cc(OCC(C)C)cc(C(F)(F)F)c1 [Compound 15] | 0.0162 |  |  |  |  |
| CNCCN(C)Cc1c[nH]nc1-c1cc(OCCCOC)cc(C(F)(F)F)c1 [Compound 24] | 0.0229 | 3.01 to 12 | 4.02 |  |  |
| CN(CCN)Cc1n[nH]cc1-c1cc(C(F)(F)F)cc(C(F)(F)F)c1 [Compound 7] | 2.6 |  |  |  |  |
| CC(C)Oc1ccc(-c2n[nH]cc2CN(C)CCN)cc1C(F)(F)F [Compound 5] | 0.00445 |  |  | 0.305 | < 3 |
| CNCCN(C)Cc1c[nH]nc1-c1cc(C)c(OCC2CCC2)c(C(F)(F)F)c1 [Compound 58] | 0.00706 |  |  | 0.547 | < 3 |
| CNCCN(C)Cc1c[nH]nc1-c1cc(OCCCC(F)(F)F)cc(C(F)(F)F)c1 [Compound 48] | 0.0303 | 3.01 to 12 | 4.2 |  |  |
| CNCCN(C)Cc1c[nH]nc1-c1cc(OCC(F)(F)F)cc(C(F)(F)F)c1 [Compound 60] | 0.0576 |  |  |  |  |
| CNCCN(C)Cc1n[nH]cc1-c1cc(OCC(C)C)cc(C(F)(F)F)c1 [Compound 29] | 0.0663 |  |  |  |  |
| CNCCN(C)Cc1c[nH]nc1-c1cc(Oc2ccncc2)cc(C(F)(F)F)c1 [Compound 38] | 0.138 | 3.01 to 12 | 8.58 |  |  |
| CNCCN(C)Cc1c[nH]nc1-c1cc(OCCOC)cc(C(F)(F)F)c1 [Compound 16] | 0.0204 | < 3 | 2.24 |  |  |
| CNCCN(C)Cc1c[nH]nc1-c1cc(OCC2CCC2)cc(C(F)(F)F)c1 [Compound 44] | 0.0132 |  |  | 4.52 | 3.01 to 12 |
| CNCCN(C)Cc1c[nH]nc1-c1cc(OCCC(C)C)c(Cl)c(C(F)(F)F)c1 [Compound 54] | 0.146 |  |  |  |  |
| CN(CCN)Cc1c[nH]nc1-c1cc(C(F)(F)F)cc(C(F)(F)F)c1 [Compound 2] | 0.389 |  |  |  |  |
| CNCCN(C)Cc1n[nH]cc1-c1cc(C(O)C(C)C)cc(C(F)(F)F)c1 (stereo not shown) [Compound 32] | > 1 |  |  |  |  |
| CNCCN(C)Cc1c[nH]nc1-c1cc(Oc2cncnc2)cc(C(F)(F)F)c1 [Compound 53] | 0.299 |  |  |  |  |
| CNCCN(C)Cc1c[nH]nc1-c1cc(OCCCC(=O)OC)cc(C(F)(F)F)c1 [Compound 61] | 0.0165 |  |  |  |  |
| CNCCN(C)Cc1c[nH]nc1-c1cc(OCc2ccccc2)cc(C(F)(F)F)c1 [Compound 37] | 0.0185 | 3.01 to 12 | 5 |  |  |
| CNCCN(C)Cc1n[nH]cc1-c1ccc(OCCOC)c(C(F)(F)F)c1 [Compound 21] | 0.0328 | < 3 | 0.812 |  |  |
| CNCCN(C)Cc1c[nH]nc1-c1cc(Cl)c(OCC2CCC2)c(C(F)(F)F)c1 [Compound 35] | 0.00431 |  |  | 0.694 | < 3 |
